Experimental data as given in patent US6878713B2, “Generation triple-targeting, chiral, broad-spectrum antimicrobial 7-substituted piperidino-quinolone carboxylic acid derivatives, their preparation, compositions and use as medicaments” (Wockhardt Limited, priority 2001, dated 2005).
Values after ≈ are worked out from the molar mass of the structure shown.

System: not given
Assay: not given
Conditions: not given

| melting point | Compound |
| --- | --- |
| 158 to 160 °C | COc1c(N2CCC(NC(=O)OCc3ccccc3)C(C)(C)C2)c(F)cc2c(=O)c(C(=O)O)cn(C3CC3)c12 (racemic) [Compound 32, (±)-1-Cyclopropyl-6-fluoro-1,4-dihydro-8-methoxy-7-(4-benzyloxycarbonylamino-3,3-dimethyl-1-piperidinyl)-4-oxo-quinoline-3-carboxylic acid] |
| 240 to 242 °C | COc1c(N2CC[C@@H](N)[C@H](C)C2)c(F)cc2c(=O)c(C(=O)O)cn(C3CC3)c12 (relative stereo) [Compound 2, trans-1-Cyclopropyl-6-fluoro-1,4-dihydro-8-methoxy-7-(4-amino-3-methyl-1-piperidinyl)-4-oxo-quinoline-3carboxylic acid] |
| 246 to 250 °C | COc1c(N2CC[C@H](N)[C@H](C)C2)c(F)cc2c(=O)c(C(=O)O)cn(C3CC3)c12 (relative stereo) [Compound 5, cis-1-Cyclopropyl-6-fluoro-1,4-dihydro-8-methoxy-7-(4-amino-3-methyl-1-piperidinyl)-4-oxo-quinoline-3-carboxylic acid] |
| 240 °C (dec.) | CNC1CCN(c2c(F)cc3c(=O)c(C(=O)O)cn(C4CC4)c3c2OC)CC1C (stereo not drawn) [Compound 8, 1-Cyclopropyl-6-fluoro-1,4-dihydro-8-methoxy-7-(4-methylamino-3-methyl-1-piperidinyl)-4-oxo-quinoline-3-carboxylic acid] |
| 160 to 162 °C | CCNC1CCN(c2c(F)cc3c(=O)c(C(=O)O)cn(C4CC4)c3c2OC)CC1C (stereo not drawn) [Compound 10, 1-Cyclopropyl-6-fluoro-1,4-dihydro-8-methoxy-7-(4-ethylamino-3-methyl-1-piperidinyl)-4-oxo-quinoline-3-carboxylic acid] |
| 182 to 184 °C | COc1c(N2CCC(NC3CC3)C(C)C2)c(F)cc2c(=O)c(C(=O)O)cn(C3CC3)c12 (stereo not drawn) [Compound 11, 1-Cyclopropyl-6-fluoro-1,4-dihydro-8-methoxy-7-(4-cyclopropylamino-3-methyl-1-piperidinyl)-4-oxo-quinoline-3-carboxylic acid] |
| 180 to 182 °C | COc1c(N2CCC(N(C)C)C(C)C2)c(F)cc2c(=O)c(C(=O)O)cn(C3CC3)c12 (stereo not drawn) [Compound 13, 1-Cyclopropyl-6-fluoro-1,4-dihydro-8-methoxy-7-(4-dimethylamino-3-methyl-1-piperidinyl)-4-oxo-quinoline-3-carboxylic acid] |
| 194 to 196 °C | COc1c(N2CCC(NC(C)=O)C(C)(C)C2)c(F)cc2c(=O)c(C(=O)O)cn(C3CC3)c12 (stereo not drawn) [Compound 29, 1-Cyclopropyl-6-fluoro-1,4-dihydro-8-methoxy-7-(4-acetylamino-3,3-dimethyl-1-piperidinyl)-4-oxo-quinoline-3-carboxylic acid] |
| 246 to 248 °C | CNC1CCN(c2c(F)cc3c(=O)c(C(=O)O)cn(C4CC4)c3c2OC)CC1(C)C (stereo not drawn) [Compound 35, 1-Cyclopropyl-6-fluoro-1,4-dihydro-8-methoxy-7-(4-methylamino-3,3-dimethyl-1-piperidinyl)-4-oxo-quinoline-3-carboxylic acid] |
| 230 to 232 °C | CCNC1CCN(c2c(F)cc3c(=O)c(C(=O)O)cn(C4CC4)c3c2OC)CC1(C)C (stereo not drawn) [Compound 36, 1-Cyclopropyl-6-fluoro-1,4-dihydro-8-methoxy-7-(4-ethylamino-3,3-dimethyl-1-piperidinyl)-4-oxo-quinoline-3-carboxylic acid] |
| 190 to 192 °C | COc1c(N2CCC(NC3CC3)C(C)(C)C2)c(F)cc2c(=O)c(C(=O)O)cn(C3CC3)c12 (stereo not drawn) [Compound 37, 1-Cyclopropyl-6-fluoro-1,4-dihydro-8-methoxy-7-(4-cyclopropylamino-3,3-dimethyl-1-piperidinyl)-4-oxo-quinoline-3-carboxylic acid] |
| 210 °C | COc1c(N2CCC(N(C)C)C(C)(C)C2)c(F)cc2c(=O)c(C(=O)O)cn(C3CC3)c12 (stereo not drawn) [Compound 38, 1-Cyclopropyl-6-fluoro-1,4-dihydro-8-methoxy-7-(4-dimethylamino-3,3-dimethyl-1-piperidinyl)-4-oxo-quinoline-3-carboxylic acid] |
| 152 to 154 °C | CCC1(C)CN(c2c(F)cc3c(=O)c(C(=O)O)cn(C4CC4)c3c2OC)CCC1N (stereo not drawn) [Compound 39, 1-Cyclopropyl-6-fluoro-1,4-dihydro-8-methoxy-7-(4-amino-3-ethyl-3-methyl-1-piperidinyl)-4-oxo-quinoline-3-carboxylic acid] |
| 182 to 184 °C | CCC1(C)CN(c2c(F)cc3c(=O)c(C(=O)O)cn(C4CC4)c3c2OC)CCC1NC (stereo not drawn) [Compound 40, 1-Cyclopropyl-6-fluoro-1,4-dihydro-8-methoxy-7-(4-methylamino-3-ethyl-3-methyl-1-piperidinyl)-4-oxo-quinoline-3-carboxylic acid] |
| 210 to 212 °C | CCC1(C)CN(c2c(F)cc3c(=O)c(C(=O)O)cn(C4CC4)c3c2OC)CCC1NC1CC1 (stereo not drawn) [Compound 41, 1-Cyclopropyl-6-fluoro-1,4-dihydro-8-methoxy-7-(4-cyclopropylamino-3-ethyl-3-methyl-1-piperidinyl)-4-oxo-quinoline-3-carboxylic acid] |
| 210 to 212 °C | CCC1(C)CN(c2c(F)cc3c(=O)c(C(=O)O)cn(C4CC4)c3c2OC)CCC1N(C)C (stereo not drawn) [Compound 42, 1-Cyclopropyl-6-fluoro-1,4-dihydro-8-methoxy-7-(4-dimethylamino-3-ethyl-3-methyl-1-piperidinyl)-4-oxo-quinoline-3-carboxylic acid] |
| 178 to 180 °C | COc1c(N2CC(C)C(N)C(C)C2)c(F)cc2c(=O)c(C(=O)O)cn(C3CC3)c12 (stereo not drawn) [Compound 44, 1-Cyclopropyl-6-fluoro-1,4-dihydro-8-methoxy-7-(4-amino-3,5-dimethyl-1-piperidinyl)-4-oxo-quinoline-3-carboxylic acid] |
| 268 to 272 °C | CNC1C(C)CN(c2c(F)cc3c(=O)c(C(=O)O)cn(C4CC4)c3c2OC)CC1C (stereo not drawn) [Compound 45, 1-Cyclopropyl-6-fluoro-1,4-dihydro-8-methoxy-7-(4-methylamino-3,5-dimethyl-1-piperidinyl)-4-oxo-quinoline-3-carboxylic acid] |
| 218 to 220 °C | COc1c(N2CC(C)C(N)C(C)(C)C2)c(F)cc2c(=O)c(C(=O)O)cn(C3CC3)c12 (stereo not drawn) [Compound 50, 1-Cyclopropyl-6-fluoro-1,4-dihydro-8-methoxy-7-(4-amino-3,3,5-trimethyl-1-piperidinyl)-4-oxo-quinoline-3-carboxylic acid] |
| 260 to 262 °C | COc1c(N2CCC(N)C(C)C2)c(F)c(N)c2c(=O)c(C(=O)O)cn(C3CC3)c12 (stereo not drawn) [Compound 53, 5-Amino-1-cyclopropyl-6-fluoro-1,4-dihydro-8-methoxy-7-(4-amino-3-methyl-1-piperidinyl)-4-oxo-quinoline-3-carboxylic acid] |
| 228 to 230 °C (dec.) | CNC1CCN(c2c(F)c(N)c3c(=O)c(C(=O)O)cn(C4CC4)c3c2OC)CC1C (stereo not drawn) [Compound 60, 5-Amino-1-cyclopropyl-6-fluoro-1,4-dihydro-8-methoxy-7-(4-methylamino-3-methyl-1-piperidinyl)-4-oxo-quinoline-3-carboxylic acid] |
| 230 to 232 °C | CCNC1CCN(c2c(F)c(N)c3c(=O)c(C(=O)O)cn(C4CC4)c3c2OC)CC1C (stereo not drawn) [Compound 61, 5-Amino-1-cyclopropyl-6-fluoro-1,4-dihydro-8-methoxy-7-(4-ethylamino-3-methyl-1-piperidinyl)-4-oxo-quinoline-3-carboxylic acid] |
| 218 to 220 °C | COc1c(N2CCC(NC3CC3)C(C)C2)c(F)c(N)c2c(=O)c(C(=O)O)cn(C3CC3)c12 (stereo not drawn) [Compound 62, 5-Amino-1-cyclopropyl-6-fluoro-1,4-dihydro-8-methoxy-7-(4-cyclopropylamino-3-methyl-1-piperidinyl)-4-oxo-quinoline-3-carboxylic acid] |

| Compound | melting point |
| --- | --- |
| Cc1c(N2CCC(N)C(C)(C)C2)c(F)cc2c(=O)c(C(=O)O)cn(C3CC3)c12 (racemic) [Compound 101, (±)-1-Cyclopropyl-6-fluoro-1,4-dihydro-8-methyl-7-(4-amino-3,3-dimethyl-1-piperidinyl)-4-oxo-quinoline-3-carboxylic acid] | 198 to 200 °C |
| Cc1c(N2CCC(N)C(C)(C)C2)c(F)cc2c(=O)c(C(=O)O)cn(C3CC3)c12.Cl (racemic) [Example 97] | 242 to 244 °C |
| Cc1c(N2CC[C@H](N)[C@H](C)C2)c(F)cc2c(=O)c(C(=O)O)cn(C3CC3)c12 (relative stereo) [Compound 99, cis-1-Cyclopropyl-6-fluoro-1,4-dihydro-8-methyl-7-(4-amino-3-methyl-1-piperidinyl)-4-oxo-quinoline-3-carboxylic acid] | 224 to 228 °C |
| Cc1c(N2CCC(N)C(C)(C)C2)c(F)cc2c(=O)c(C(=O)O)cn(C3CC3)c12 (single isomer, unassigned; (-)) [Compound 109, (−)-1-Cyclopropyl-6-fluoro-1,4-dihydro-8-methyl-7-(4-amino-3,3-dimethyl-1-piperidinyl)-4-oxo-quinoline-3-carboxylic acid] | 195 to 198 °C |

System: Fluoroquinolone Sensitive Strains
Assay: In-vitro antimicrobial test (MIC, two-fold serial agar dilution, NCCLS), Table 17
Type: cell-based
Conditions: Escherichia coli, ATCC25922, E. coli ATCC 25922
Experimental: The test method was in accordance with the standard NCCLS protocol (Methods for Dilution Antimicrobial Susceptibility Tests for Bacteria that grow Aerobicially, Approved Standards, M7-A5, Fifth Edition, January 2000).
The antibacterial activities (minimum inhibitory concentration: MIC, […]) were determined by using the two-fold serial agar dilution method recommended by NCCLS. The media used for preculture and main culture were Tryptic Soya broth (Difco) and Mueller Hinton medium (Difco), respectively. The Mueller Hinton agar was supplemented with 5% sheep blood for streptococci. Overnight cultures were diluted with buffered saline (pH 7.2) to the final cell density of 5×10^6-10^7 CFU/ml, and each bacterial suspension was applied with a replicator (Denley's multipoint inoculator, UK) onto a series of Mueller-Hinton agar plates containing antibacterial agents at various concentrations. Final inoculum was approximately 10^4 CFU/spot. The plates were incubated for 18 hrs at 37° C. The MIC was defined as the lowest concentration of an antibacterial agent that inhibits the development of visible microbial growth on agar.

| MIC [µg/mL] | Compound |
| --- | --- |
| 0.4 (≈ 0.956 µM) | COc1c(N2CC(C)C(O)C(C)(C)C2)c(F)cc2c(=O)c(C(=O)O)cn(C3CC3)c12 (stereo not drawn) [Compound 147, 1-Cyclopropyl-6-fluoro-1,4-dihydro-8-methoxy-7-(4-hydroxy-3,3,5-trimethyl-1-piperidinyl)-4-oxo-quinoline-3-carboxylic acid] |

Same assay, conditions: Staphylococcus aureus, ATCC 25923 / MSSA, MSSA ATCC 25923

| MIC [µg/mL] | Compound |
| --- | --- |
| < 0.006 | COc1c(N2CC(C)C(O)C(C)(C)C2)c(F)cc2c(=O)c(C(=O)O)cn(C3CC3)c12 (stereo not drawn) [Compound 147, 1-Cyclopropyl-6-fluoro-1,4-dihydro-8-methoxy-7-(4-hydroxy-3,3,5-trimethyl-1-piperidinyl)-4-oxo-quinoline-3-carboxylic acid] |

Same assay, conditions: Streptococcus pneumoniae, ATCC49619, S. pneumoniae ATCC 49619

| MIC [µg/mL] | Compound |
| --- | --- |
| 0.1 (≈ 0.239 µM) | COc1c(N2CC(C)C(O)C(C)(C)C2)c(F)cc2c(=O)c(C(=O)O)cn(C3CC3)c12 (stereo not drawn) [Compound 147, 1-Cyclopropyl-6-fluoro-1,4-dihydro-8-methoxy-7-(4-hydroxy-3,3,5-trimethyl-1-piperidinyl)-4-oxo-quinoline-3-carboxylic acid] |
